Measured values published in paper PMC10598797, “Molecular View on the iRGD Peptide Binding Mechanism: Implications for Integrin Activity and Selectivity Profiles” (Journal of Chemical Information and Modeling, 2023).

How the values were obtained:
tumor = conditions: cited from earlier work
Source text: (§1) Nowadays, the clinical efficacy of chemotherapeutic drugs is frequently hampered either by a lack of selectivity over healthy cells or by poor pharmacokinetic properties, including cancer homing and penetration. This is especially true for solid tumors, which are frequently characterized by the upregulation of junction proteins such as desmoglein 2 (DSG2) and E-cadherin, and extracellular matrix (ECM) components (i.e., fibrinogen and collagen), which form a physical barrier against the intracellular transport of exogenous molecules.[1] For these reasons, anticancer compounds often need to be a ...

[1] = tested on: metastatic pancreatic ductal adenocarcinoma (PDAC); conditions: phase I trial, combination with nab-paclitaxel and gemcitabine; cited from earlier work
Source text: as §1

tumor migration = conditions: in vitro, CendR- and NRP-1-dependent; cited from earlier work
Source text: (§2) The striking iRGD’s tumor-homing activity is linked to the marked overexpression of RGD integrins on the cancer cell membrane.[38]−[40] […] This can be correlated to the peculiar multistage internalization process of iRGD, where the binding to integrins represents only the first step.[16]

[2] = cited from earlier work
Source text: as §2

αvβ5 = molecular target: T1, αvβ5 (Homo sapiens, UniProt P06756+P18084); experiment: Solid-phase integrin binding assay, αvβ5
T1 construct: purchased R&D Systems, Inc
T1 sequence (P06756 31-992 limits assumed): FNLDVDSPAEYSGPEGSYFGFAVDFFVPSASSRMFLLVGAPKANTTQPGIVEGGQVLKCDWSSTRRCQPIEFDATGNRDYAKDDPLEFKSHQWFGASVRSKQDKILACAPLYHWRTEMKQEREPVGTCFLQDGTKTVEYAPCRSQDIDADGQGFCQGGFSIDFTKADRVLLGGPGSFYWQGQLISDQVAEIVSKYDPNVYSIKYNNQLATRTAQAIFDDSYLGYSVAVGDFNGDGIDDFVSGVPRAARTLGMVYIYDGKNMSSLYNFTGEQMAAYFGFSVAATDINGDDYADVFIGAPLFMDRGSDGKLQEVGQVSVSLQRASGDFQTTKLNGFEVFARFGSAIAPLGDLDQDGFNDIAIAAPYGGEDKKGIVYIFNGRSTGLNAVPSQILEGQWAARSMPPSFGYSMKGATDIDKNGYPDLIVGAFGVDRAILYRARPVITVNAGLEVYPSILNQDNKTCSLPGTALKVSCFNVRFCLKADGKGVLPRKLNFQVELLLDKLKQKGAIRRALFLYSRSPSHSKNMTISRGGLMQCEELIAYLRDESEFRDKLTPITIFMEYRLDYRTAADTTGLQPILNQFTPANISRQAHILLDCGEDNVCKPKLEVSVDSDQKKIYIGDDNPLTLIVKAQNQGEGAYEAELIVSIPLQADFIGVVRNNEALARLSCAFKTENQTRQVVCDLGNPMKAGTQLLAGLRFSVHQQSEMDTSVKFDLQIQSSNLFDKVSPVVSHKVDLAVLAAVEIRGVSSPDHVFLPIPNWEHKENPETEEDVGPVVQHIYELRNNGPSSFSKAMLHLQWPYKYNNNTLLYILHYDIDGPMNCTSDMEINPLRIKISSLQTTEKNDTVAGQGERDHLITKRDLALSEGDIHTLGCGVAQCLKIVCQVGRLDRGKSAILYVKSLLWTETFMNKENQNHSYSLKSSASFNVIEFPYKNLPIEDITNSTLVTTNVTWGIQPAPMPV
T1 sequence (P18084 24-719 limits assumed): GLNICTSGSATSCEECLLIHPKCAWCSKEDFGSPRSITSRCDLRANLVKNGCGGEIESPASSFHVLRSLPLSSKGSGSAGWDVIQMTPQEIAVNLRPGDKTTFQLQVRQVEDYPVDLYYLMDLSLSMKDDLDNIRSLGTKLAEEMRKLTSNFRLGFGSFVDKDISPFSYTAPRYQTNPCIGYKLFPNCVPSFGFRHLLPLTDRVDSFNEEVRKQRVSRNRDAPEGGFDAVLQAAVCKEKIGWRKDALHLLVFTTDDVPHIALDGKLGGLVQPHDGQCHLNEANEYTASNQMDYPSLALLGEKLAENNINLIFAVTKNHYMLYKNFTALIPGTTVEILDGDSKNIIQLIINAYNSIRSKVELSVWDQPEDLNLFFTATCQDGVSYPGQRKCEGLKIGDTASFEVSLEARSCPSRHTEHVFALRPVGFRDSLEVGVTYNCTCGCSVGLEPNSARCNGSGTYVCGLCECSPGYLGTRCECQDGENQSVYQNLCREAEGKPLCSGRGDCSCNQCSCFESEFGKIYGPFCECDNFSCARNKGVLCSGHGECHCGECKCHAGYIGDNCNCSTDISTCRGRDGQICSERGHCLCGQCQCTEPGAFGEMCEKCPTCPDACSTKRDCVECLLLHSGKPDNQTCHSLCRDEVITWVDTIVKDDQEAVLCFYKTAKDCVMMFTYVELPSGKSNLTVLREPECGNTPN
Protocol: (§3) Purified αvβ3 (Sino Biological Europe GmbH) and αvβ5 (R&D Systems, Inc.) were diluted to 0.5 μg/mL, while αvβ6 (Sino Biological Europe GmbH) was diluted to 1 μg/mL in coating buffer containing Tris–HCl (20 mmol/L; pH 7.4), NaCl (150 mmol/L), MnCl2 (1 mmol/L), CaCl2 (2 mmol/L), and MgCl2 (1 mmol/L). An aliquot of diluted receptors (100 μL per well) was added to 96-well microtiter plates (Nunc MW96F Maxisorp Straight) and incubated overnight at 4 °C. The plates were then incubated with blocking solution (coating buffer plus 1% bovine serum albumin) for an additional 2 h at room temperature to block nonspecific binding, followed by 3 h incubation at room temperature with various concentrations of test compounds in the presence of, respectively, vitronectin (1 μg/mL, Sigma-Aldrich) for αvβ3 and αvβ5 and fibronectin for αvβ6 (1 μg/mL, Sigma-Aldrich) biotinylated using the EZ-Link Sulfo-NHS-Biotinylation kit (Thermo Fisher). […] Absorbance at 415 nm was read with a BMG Labtech Fluostar Optima microplate reader. All of the experiments were performed in triplicates, and the data collected were analyzed using the GraphPad 5.0 Software Package (GraphPad Prism, San Diego, CA).

αvβ6 = molecular target: T2, αvβ6 (Homo sapiens, UniProt P06756+P18564); experiment: Solid-phase integrin binding assay, αvβ6; conditions: αvβ6 1 μg/mL coated overnight at 4 °C; biotinylated fibronectin 1 μg/mL; 3 h incubation at room temperature; pH 7.4; absorbance 415 nm; mean of three independent experiments ± SEM
T2 construct: purchased Sino Biological Europe GmbH
T2 sequence (P06756 31-992 limits assumed): as the sequence (P06756 31-992 limits assumed) above
T2 sequence (P18564 22-707 limits assumed): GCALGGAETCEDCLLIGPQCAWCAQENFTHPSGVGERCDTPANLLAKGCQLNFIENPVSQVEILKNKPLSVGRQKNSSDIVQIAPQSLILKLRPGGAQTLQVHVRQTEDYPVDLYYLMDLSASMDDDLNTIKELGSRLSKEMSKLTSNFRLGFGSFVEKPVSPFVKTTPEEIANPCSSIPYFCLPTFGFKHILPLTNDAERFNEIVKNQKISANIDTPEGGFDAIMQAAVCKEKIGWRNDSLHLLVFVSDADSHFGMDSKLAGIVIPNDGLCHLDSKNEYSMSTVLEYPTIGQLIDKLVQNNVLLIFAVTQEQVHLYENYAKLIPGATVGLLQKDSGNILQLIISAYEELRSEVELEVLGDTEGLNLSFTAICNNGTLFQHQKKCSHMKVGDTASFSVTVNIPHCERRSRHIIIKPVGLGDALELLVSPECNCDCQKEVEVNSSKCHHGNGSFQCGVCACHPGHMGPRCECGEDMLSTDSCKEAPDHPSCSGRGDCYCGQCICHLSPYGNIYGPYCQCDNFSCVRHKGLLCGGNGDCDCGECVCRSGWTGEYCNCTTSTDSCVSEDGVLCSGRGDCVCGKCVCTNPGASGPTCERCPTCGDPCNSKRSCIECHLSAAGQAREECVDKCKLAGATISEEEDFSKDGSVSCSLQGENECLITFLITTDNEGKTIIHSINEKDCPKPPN
Protocol: as §3

neuropilin-1 (NRP-1) = conditions: cited from earlier work
Source text: as §2

Row | potency toward αvβ5 (in words) (αvβ5) | IC50 (αvβ6) [nM] | Compound | tumor endocytosis of cytotoxic agents (tumor) | progression-free survival [1] | effect on tumor migration and chemorepulsion (tumor migration) | site of proteolytical cleavage [2] | internalization upon binding to NRP-1 (neuropilin-1 (NRP-1))
1 | mid-low nanomolar potency | 191 ± 44 | N=C(N)NCCC[C@@H]1NC(=O)[C@@H](N)CSSC[C@@H](C(=O)O)NC(=O)[C@H](CC(=O)O)NC(=O)[C@@H]2CCCN2C(=O)CNC(=O)[C@H](CCCCN)NC(=O)[C@H](CC(=O)O)NC(=O)CNC1=O [1 (iRGD)] | enhanced by the simple coadministration | longer progression-free survival | can inhibit tumor migration and induce chemorepulsion | proteolytical cleavage at the Lys^5–Gly^6 bond | –
2 | – | – | CRGDK [CendR motif] | – | – | – | – | triggers the internalization of the peptide–receptor complex
